Laboratory results from patent US11590139B2, “Substituted aminopurine compounds, compositions thereof, and methods of treatment therewith” (Signal Pharmaceuticals, LLC, priority 2014, dated 2023).

System: Lox-IMVI melanoma cell line
Test: Lox-IMVI anti-proliferative assay (growth inhibition, Cell Titer-Glo)
Assay type: cell-based, human
Details: Homo sapiens; Lox-IMVI melanoma cell line, anti-proliferative assay; read-out: Activity (IC50 activity level)
How it was run: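 IC50 values reflect the concentration giving 50% of DMSO-control luminescence after 72 h of treatment, fitted with a four-parameter logistic model. Cells were cultured in RPMI + 10% FBS with compound from 0.5 nM to 10 μM.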

SMILES	IC50 [nM]
C[C@]1(C(N)=O)CC[C@@H](n2c(Nc3c(F)cc(F)cc3F)nc3cnc(N[C@@H]4CC[C@@H](O)C4)nc32)CC1 [Example 634, (1S,4s)-4-(2-((1R,3R)-3-hydroxycyclopentylamino)-8-(2,4,6-trifluorophenylamino)-9H-purin-9-yl)-1-methylcyclohexanecarboxamide]	500 to 1000
C[C@]1(C(N)=O)CC[C@@H](n2c(Nc3c(F)cc(F)cc3Cl)nc3cnc(N[C@@H]4CC[C@@H](O)C4)nc32)CC1 [Example 635, (1S,4s)-4-(8-(2-chloro-4,6-difluorophenylamino)-2-((1R,3R)-3-hydroxycyclopentylamino)-9H-purin-9-yl)-1-methylcyclohexanecarboxamide]	250 to 500
C[C@]1(C(N)=O)CC[C@@H](n2c(Nc3c(Cl)cc(Cl)cc3Cl)nc3cnc(N[C@@H]4CC[C@@H](O)C4)nc32)CC1 [Example 636, (1S,4s)-4-(2-((1R,3R)-3-hydroxycyclopentylamino)-8-(2,4,6-trichlorophenylamino)-9H-purin-9-yl)-1-methylcyclohexanecarboxamide]	< 250
C[C@]1(C(N)=O)CC[C@@H](n2c(Nc3c(F)cc(Cl)cc3Cl)nc3cnc(N[C@@H]4CC[C@@H](O)C4)nc32)CC1 [Example 637, (1S,4s)-4-(8-(2,4-dichloro-6-fluorophenylamino)-2-((1R,3R)-3-hydroxycyclopentylamino)-9H-purin-9-yl)-1-methylcyclohexanecarboxamide]	< 250
C[C@]1(C(N)=O)CC[C@@H](n2c(Nc3c(Cl)cc(F)cc3Cl)nc3cnc(N[C@@H]4CC[C@@H](O)C4)nc32)CC1 [Example 638, (1S,4s)-4-(8-(2,6-dichloro-4-fluorophenylamino)-2-((1R,3R)-3-hydroxycyclopentylamino)-9H-purin-9-yl)-1-methylcyclohexanecarboxamide]	< 250
C[C@]1(C(N)=O)CC[C@@H](n2c(Nc3c(F)cc(Cl)cc3F)nc3cnc(N[C@@H]4CC[C@@H](O)C4)nc32)CC1 [Example 639, (1S,4s)-4-(8-(4-chloro-2,6-difluorophenylamino)-2-((1R,3R)-3-hydroxycyclopentylamino)-9H-purin-9-yl)-1-methylcyclohexanecarboxamide]	< 250
C[C@]1(C(N)=O)CC[C@@H](n2c(Nc3c(F)cc(C#N)cc3Cl)nc3cnc(N[C@@H]4CC[C@@H](O)C4)nc32)CC1 [Example 640, (1S,4s)-4-(8-(2-chloro-4-cyano-6-fluorophenylamino)-2-((1R,3R)-3-hydroxycyclopentylamino)-9H-purin-9-yl)-1-methylcyclohexanecarboxamide]	< 250
C[C@]1(C(N)=O)CC[C@@H](n2c(Nc3c(Cl)cc(C#N)cc3Cl)nc3cnc(N[C@@H]4CC[C@@H](O)C4)nc32)CC1 [Example 641, (1S,4s)-4-(8-(2,6-dichloro-4-cyanophenylamino)-2-((1R,3R)-3-hydroxycyclopentylamino)-9H-purin-9-yl)-1-methylcyclohexanecarboxamide]	< 250
C[C@]1(C(N)=O)CC[C@@H](n2c(Nc3c(F)cc(F)cc3F)nc3cnc(N[C@H]4CC[C@H](O)C4)nc32)CC1 [Example 643, (1R,4s)-4-(2-((1S,3S)-3-hydroxycyclopentylamino)-8-(2,4,6-trifluorophenylamino)-9H-purin-9-yl)-1-methylcyclohexanecarboxamide]	500 to 1000
C[C@]1(C(N)=O)CC[C@@H](n2c(Nc3c(F)cc(F)cc3Cl)nc3cnc(N[C@H]4CC[C@H](O)C4)nc32)CC1 [Example 644, (1R,4s)-4-(8-(2-chloro-4,6-difluorophenylamino)-2-((1S,3S)-3-hydroxycyclopentylamino)-9H-purin-9-yl)-1-methylcyclohexanecarboxamide]	250 to 500
C[C@]1(C(N)=O)CC[C@@H](n2c(Nc3c(Cl)cc(Cl)cc3Cl)nc3cnc(N[C@H]4CC[C@H](O)C4)nc32)CC1 [Example 645, (1R,4s)-4-(2-((1S,3S)-3-hydroxycyclopentylamino)-8-(2,4,6-trichlorophenylamino)-9H-purin-9-yl)-1-methylcyclohexanecarboxamide]	500 to 1000
C[C@]1(C(N)=O)CC[C@@H](n2c(Nc3c(F)cc(Cl)cc3Cl)nc3cnc(N[C@H]4CC[C@H](O)C4)nc32)CC1 [Example 646, (1R,4s)-4-(8-(2,4-dichloro-6-fluorophenylamino)-2-((1S,3S)-3-hydroxycyclopentylamino)-9H-purin-9-yl)-1-methylcyclohexanecarboxamide]	250 to 500
C[C@]1(C(N)=O)CC[C@@H](n2c(Nc3c(Cl)cc(F)cc3Cl)nc3cnc(N[C@H]4CC[C@H](O)C4)nc32)CC1 [Example 647, (1R,4s)-4-(8-(2,6-dichloro-4-fluorophenylamino)-2-((1S,3S)-3-hydroxycyclopentylamino)-9H-purin-9-yl)-1-methylcyclohexanecarboxamide]	500 to 1000
C[C@]1(C(N)=O)CC[C@@H](n2c(Nc3c(F)cc(Cl)cc3F)nc3cnc(N[C@H]4CC[C@H](O)C4)nc32)CC1 [Example 648, (1R,4s)-4-(8-(4-chloro-2,6-difluorophenylamino)-2-((1S,3S)-3-hydroxycyclopentylamino)-9H-purin-9-yl)-1-methylcyclohexanecarboxamide]	> 1000
C[C@]1(C(N)=O)CC[C@@H](n2c(Nc3c(F)cc(C#N)cc3Cl)nc3cnc(N[C@H]4CC[C@H](O)C4)nc32)CC1 [Example 649, (1R,4s)-4-(8-(2-chloro-4-cyano-6-fluorophenylamino)-2-((1S,3S)-3-hydroxycyclopentylamino)-9H-purin-9-yl)-1-methylcyclohexanecarboxamide]	250 to 500
C[C@]1(C(N)=O)CC[C@@H](n2c(Nc3c(Cl)cc(C#N)cc3Cl)nc3cnc(N[C@H]4CC[C@H](O)C4)nc32)CC1 [Example 650, (1R,4s)-4-(8-(2,6-dichloro-4-cyanophenylamino)-2-((1S,3S)-3-hydroxycyclopentylamino)-9H-purin-9-yl)-1-methylcyclohexanecarboxamide]	250 to 500
C[C@]1(C(N)=O)CC[C@@H](n2c(Nc3c(F)cc(Cl)cc3Cl)nc3cnc(NC4CC(F)(F)C4)nc32)CC1 [Example 651, (1s,4s)-4-(8-(2,4-dichloro-6-fluorophenylamino)-2-(3,3-difluorocyclobutylamino)-9H-purin-9-yl)-1-methylcyclohexanecarboxamide]	< 250
NC(=O)[C@H]1CC[C@@H](n2c(Nc3c(F)cc(F)cc3F)nc3cnc(NC[C@@H]4CCCC[C@@H]4O)nc32)CC1 [Example 652, (1R,4s)-4-(2-(((1S,2S)-2-hydroxycyclohexyl)methylamino)-8-(2,4,6-trifluorophenylamino)-9H-purin-9-yl)cyclohexanecarboxamide]	> 1000
NC(=O)[C@H]1CC[C@@H](n2c(Nc3c(F)cc(F)cc3Cl)nc3cnc(NC[C@@H]4CCCC[C@@H]4O)nc32)CC1 [Example 653, (1R,4s)-4-(8-(2-chloro-4,6-difluorophenylamino)-2-(((1S,2S)-2-hydroxycyclohexyl)methylamino)-9H-purin-9-yl)cyclohexanecarboxamide]	> 1000
NC(=O)[C@H]1CC[C@@H](n2c(Nc3c(Cl)cc(Cl)cc3Cl)nc3cnc(NC[C@@H]4CCCC[C@@H]4O)nc32)CC1 [Example 654, (1R,4s)-4-(2-(((1S,2S)-2-hydroxycyclohexyl)methylamino)-8-(2,4,6-trichlorophenylamino)-9H-purin-9-yl)cyclohexanecarboxamide]	> 1000
NC(=O)[C@H]1CC[C@@H](n2c(Nc3c(F)cc(Cl)cc3Cl)nc3cnc(NC[C@@H]4CCCC[C@@H]4O)nc32)CC1 [Example 655, (1R,4s)-4-(8-(2,4-dichloro-6-fluorophenylamino)-2-(((1S,2S)-2-hydroxycyclohexyl)methylamino)-9H-purin-9-yl)cyclohexanecarboxamide]	> 1000
NC(=O)[C@H]1CC[C@@H](n2c(Nc3c(Cl)cc(F)cc3Cl)nc3cnc(NC[C@@H]4CCCC[C@@H]4O)nc32)CC1 [Example 656, (1R,4s)-4-(8-(2,6-dichloro-4-fluorophenylamino)-2-(((1S,2S)-2-hydroxycyclohexyl)methylamino)-9H-purin-9-yl)cyclohexanecarboxamide]	> 1000
NC(=O)[C@H]1CC[C@@H](n2c(Nc3c(F)cc(Cl)cc3F)nc3cnc(NC[C@@H]4CCCC[C@@H]4O)nc32)CC1 [Example 657, (1R,4s)-4-(8-(4-chloro-2,6-difluorophenylamino)-2-(((1S,2S)-2-hydroxycyclohexyl)methylamino)-9H-purin-9-yl)cyclohexanecarboxamide]	> 1000
N#Cc1cc(F)c(Nc2nc3cnc(NC[C@@H]4CCCC[C@@H]4O)nc3n2[C@H]2CC[C@@H](C(N)=O)CC2)c(Cl)c1 [Example 658, (1R,4s)-4-(8-(2-chloro-4-cyano-6-fluorophenylamino)-2-(((1S,2S)-2-hydroxycyclohexyl)methylamino)-9H-purin-9-yl)cyclohexanecarboxamide]	> 1000
N#Cc1cc(Cl)c(Nc2nc3cnc(NC[C@@H]4CCCC[C@@H]4O)nc3n2[C@H]2CC[C@@H](C(N)=O)CC2)c(Cl)c1 [Example 659, (1R,4s)-4-(8-(2,6-dichloro-4-cyanophenylamino)-2-(((1S,2S)-2-hydroxycyclohexyl)methylamino)-9H-purin-9-yl)cyclohexanecarboxamide]	> 1000
NC(=O)[C@H]1CC[C@@H](n2c(Nc3c(F)cc(F)cc3Cl)nc3cnc(NC[C@@H]4CCCC[C@H]4O)nc32)CC1 [Example 660, (1R,4s)-4-(8-(2-chloro-4,6-difluorophenylamino)-2-(((1S,2R)-2-hydroxycyclohexyl)methylamino)-9H-purin-9-yl)cyclohexanecarboxamide]	> 1000

Same assay, conditions: Lox-IMVI melanoma cell line, anti-proliferative assay; read-out: Activity (IC50 activity level)

SMILES	IC50 [nM]
C[C@]1(C(N)=O)CC[C@@H](n2c(Nc3c(F)cc(C#N)cc3F)nc3cnc(N[C@@H]4CCC[C@@H](O)C4)nc32)CC1 [Example 642, (1S,4s)-4-(8-(4-cyano-2,6-difluorophenylamino)-2-((1R,3R)-3-hydroxycyclohexylamino)-9H-purin-9-yl)-1-methylcyclohexanecarboxamide]	> 1000
